From PubChem BioAssay (NCI) come the findings set out here.

The structures appear in SMILES notation.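 Growth conditions: 96-well plates. Treatment: test compound, 48 hours, 5 concentrations. Analysis: linear interpolation between bracketing concentrations; unreached endpoints set to highest concentration. GI50 = concentration required for 50% inhibition of growth. The concentration for full growth arrest is given as TGI.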

Test systems include 786-0 renal; SF-268 CNS; SK-MEL-5 melanoma; HS 578T breast; UACC-257 melanoma; HCT-116 colon; CCRF-CEM leukemia; HOP-62 NSCLC; T-47D breast; A549 NSCLC.
What all share (test): NCI-60 cell line screen, 48 h

Consider `COc1cc(C(=O)/C=C/c2sc(Cl)nc2Cl)cc(OC)c1OC`, for which the GI50 is 1.84 µM in the assay on 786-0 renal; 1.79 µM in the assay on SF-268 CNS; 1.95 µM in the assay on SK-MEL-5 melanoma; 2.02 µM in the assay on HS 578T breast; 2.01 µM in the assay with UACC-257 melanoma; 1.75 µM in the assay with HCT-116 colon. The GI50 is 1.91 µM in the assay on CCRF-CEM leukemia, 2.29 µM in the assay with HOP-62 NSCLC, 2.14 µM in the assay on T-47D breast and 3.18 µM in the assay with A549 NSCLC. Further, the TGI was 3.42 µM in the assay on 786-0 renal; 3.77 µM with SF-268 CNS; 3.96 µM with SK-MEL-5 melanoma; 5.54 µM with HS 578T breast; 4.23 µM in the assay on UACC-257 melanoma; 3.18 µM with HCT-116 colon. Also, the TGI is 4.95 µM with CCRF-CEM leukemia, 5.6 µM in the assay on HOP-62 NSCLC, 5.35 µM in the assay with T-47D breast and 11.8 µM in the assay with A549 NSCLC.

Consider `Cc1nc2c(nc1C)C(=O)c1ccccc1C2=O`, for which the TGI in the assay on 786-0 renal was 47.1 µM; in the assay with SF-268 CNS, 46.3 µM; in the assay on SK-MEL-5 melanoma, 0.518 µM; in the assay on HS 578T breast, 6.47 µM; in the assay on UACC-257 melanoma it was 4.3 µM; in the assay on HCT-116 colon it was 13 µM. In addition, the TGI in the assay with CCRF-CEM leukemia is 46.9 µM; in the assay with HOP-62 NSCLC it was 10.3 µM; with T-47D breast, 13.8 µM; with A549 NSCLC, 3.41 µM.

As to `CCc1ccc2c(c1)C(=O)c1c-2n(CCCBr)c(=O)c2cc([N+](=O)[O-])ccc12`, the GI50 in the assay with 786-0 renal was 23.4 µM; with SF-268 CNS, 15.9 µM; with SK-MEL-5 melanoma, over 50 µM; with HS 578T breast, 18.2 µM; with UACC-257 melanoma, over 50 µM; in the assay with HCT-116 colon it was over 50 µM. Moreover, the GI50 in the assay with CCRF-CEM leukemia was over 50 µM; in the assay with HOP-62 NSCLC, 21.3 µM; in the assay on T-47D breast, over 50 µM; in the assay with A549 NSCLC, over 50 µM. In addition, the TGI in the assay with 786-0 renal, with SF-268 CNS, with SK-MEL-5 melanoma, with HS 578T breast, in the assay with UACC-257 melanoma and in the assay with HCT-116 colon was over 50 µM throughout. Further, the TGI with CCRF-CEM leukemia, in the assay with HOP-62 NSCLC, with T-47D breast and with A549 NSCLC was over 50 µM each time.

Turning to `COc1cc2nc(C)nc(N[C@H](C)c3cc(N)cc(C(F)(F)F)c3)c2cc1O[C@H]1CCOC1`, the GI50 is 9.82 µM in the assay with 786-0 renal; 12.5 µM in the assay with SF-268 CNS; 13.4 µM in the assay on SK-MEL-5 melanoma; 14.7 µM with HS 578T breast; 16.1 µM with UACC-257 melanoma; 11.4 µM with HCT-116 colon. In addition, the GI50 was 13.5 µM in the assay on CCRF-CEM leukemia, 11.1 µM with HOP-62 NSCLC, 16.3 µM in the assay with T-47D breast and 14.8 µM with A549 NSCLC. The TGI with 786-0 renal came to 23.1 µM; in the assay with SF-268 CNS, 31.6 µM; in the assay on SK-MEL-5 melanoma it was 26.5 µM; with HS 578T breast, 38.9 µM; with UACC-257 melanoma, 30.5 µM; in the assay on HCT-116 colon, 29.6 µM. In addition, the TGI in the assay on CCRF-CEM leukemia is 49.3 µM; in the assay on HOP-62 NSCLC, 25.6 µM; with T-47D breast, 41.4 µM; in the assay with A549 NSCLC, 32.4 µM.

With `Oc1ccc(Cl)cc1-c1cc(-c2ccccc2Cl)[nH]n1`, the GI50 in the assay on 786-0 renal was over 100 µM; with SF-268 CNS, 7.71 µM; with SK-MEL-5 melanoma it was 5.66 µM; in the assay on HS 578T breast, 7.85 µM; in the assay on UACC-257 melanoma, 30.8 µM; in the assay on HCT-116 colon, 4.6 µM. The GI50 is 2.71 µM with CCRF-CEM leukemia, 19.3 µM with HOP-62 NSCLC, 1.61 µM with T-47D breast and 4.74 µM in the assay with A549 NSCLC. Also, the TGI with 786-0 renal, with SF-268 CNS, with SK-MEL-5 melanoma, in the assay with HS 578T breast, with UACC-257 melanoma and in the assay with HCT-116 colon was over 100 µM throughout. Further, the TGI in the assay on CCRF-CEM leukemia, in the assay on HOP-62 NSCLC, in the assay on T-47D breast and in the assay on A549 NSCLC was over 100 µM each time.

As to `CCOC(=O)Nc1nc2ccc(OCC)cc2s1`, the GI50 is over 100 µM with 786-0 renal; 84.6 µM in the assay on SF-268 CNS; 5.56 µM in the assay with SK-MEL-5 melanoma; 56.7 µM in the assay with HS 578T breast; over 100 µM in the assay on UACC-257 melanoma; 6.42 µM in the assay on HCT-116 colon. Further, the GI50 was over 100 µM with CCRF-CEM leukemia, 39.4 µM with HOP-62 NSCLC, 28.8 µM in the assay on T-47D breast and 7.2 µM with A549 NSCLC. Besides, the TGI in the assay with 786-0 renal, in the assay with SF-268 CNS, with SK-MEL-5 melanoma, in the assay with HS 578T breast, with UACC-257 melanoma and in the assay with HCT-116 colon was over 100 µM in each case. Further, the TGI with CCRF-CEM leukemia, with HOP-62 NSCLC, with T-47D breast and with A549 NSCLC was over 100 µM in each case.

For `CC1=C(C(=O)Nc2ccc(F)c(Cl)c2)C(c2ccc(Cl)cc2)NC(=O)N1` (stereo not given), the GI50 is 16.5 µM in the assay on 786-0 renal; 22.1 µM with SF-268 CNS; 15.5 µM in the assay with SK-MEL-5 melanoma; 21.5 µM in the assay on HS 578T breast; 19.4 µM in the assay with UACC-257 melanoma; 12.8 µM with HCT-116 colon. The GI50 is 15.3 µM in the assay with CCRF-CEM leukemia, 15.5 µM in the assay on HOP-62 NSCLC, over 100 µM with T-47D breast and 20.1 µM in the assay with A549 NSCLC. Also, the TGI in the assay with 786-0 renal came to 31.7 µM; in the assay on SF-268 CNS, 73.4 µM; in the assay with SK-MEL-5 melanoma it was 30.4 µM; with HS 578T breast, 51.1 µM; with UACC-257 melanoma, 38.6 µM; with HCT-116 colon, 25.4 µM. The TGI with CCRF-CEM leukemia is 38.8 µM; in the assay on HOP-62 NSCLC, 30.8 µM; in the assay with T-47D breast it was over 100 µM; in the assay on A549 NSCLC, 46.3 µM.

With `COc1cc2c(c(OC)c1O)C(=O)C(OC)C(c1ccc(O)c(O)c1)O2` (stereo not given), the GI50 was 1.05 µM with 786-0 renal; 1.5 µM in the assay with SF-268 CNS; 0.757 µM with SK-MEL-5 melanoma; 0.0889 µM in the assay on HS 578T breast; over 100 µM in the assay on UACC-257 melanoma; 0.396 µM with HCT-116 colon. Moreover, the GI50 in the assay with CCRF-CEM leukemia was 0.428 µM; in the assay with HOP-62 NSCLC, 0.712 µM; in the assay on T-47D breast, 0.513 µM; in the assay with A549 NSCLC, 1.31 µM. The TGI in the assay with 786-0 renal is over 100 µM; in the assay with SF-268 CNS, over 100 µM; with SK-MEL-5 melanoma, 3.26 µM; in the assay with HS 578T breast, 46.1 µM; in the assay with UACC-257 melanoma, over 100 µM; in the assay with HCT-116 colon, over 100 µM. Moreover, the TGI is over 31 µM with CCRF-CEM leukemia, over 100 µM with HOP-62 NSCLC, 92.4 µM in the assay on T-47D breast and over 100 µM with A549 NSCLC.
